# From patent EP1144011B1, “PRODRUG COMPOUNDS AND PROCESS FOR PREPARATION THEREOF” (Coulter Pharmaceutical, Inc., priority 1998, dated 2000)
# Square brackets hold non-standard residues; d marks the D form. Peptide text beside a SMILES is read from it. * marks the point of attachment. Sta = CC(C)C[C@H](N)[C@@H](O)CC(=O)O; Isovaleryl = CC(C)CC(=O)*
# Legend:
# [1] = tested on: MCF 7/6 (breast carcinoma) cell homogenate; test: Compound screen: cleavage by MCF 7/6 cell homogenate, HPLC; format: biochemical
# Description: Based on HPLC analysis of digestion products, activation of peptidyl-toxin to free toxin occurs via a series of enzyme catalyzed cleavage reactions. […] Initial endopeptidase cleavage occurs between the AA^3 (P1) and AA^2(P1') amino acids to yield alanyl-leucyl-doxorubicin.
# (§1) Test samples were incubated at 37°C for 2 hr with the three different preparations of carcinoma enzyme and with whole blood, extracted with acetonitrile, and analyzed by HPLC using fluorescence detection. With few exceptions, results for carcinoma enzyme cleavage were the same for a partially purified fraction from HeLa cells, MFC 7/6 cell homogenate, or MCF 7/6 conditioned media.
# MCF 7/6 cells were grown to confluence in a serum free medium containing DMEM:F12 (1:1), 50 mg/L bovine serum albumin, ITS-X, and Lipid Concentrate. 100 mL of cells were harvested by centrifugation at 4°C 10,000xg, for 20 min and decanting the supernatant. The pellet was resuspended in 2 mL phosphate buffered saline (Gibco) and centrifuged at 18,000xg for 10 min. […]
# (§2) For HPLC analysis 50 µL of sample was injected on a 4.6 x 50 mm 2µ TSK Super-ODS chromatography column at 40°C and eluted with a 3 minute linear gradient from 26% to 68% acetonitrile in aqueous 20 mM ammonium acetate pH 4.5 buffer at 2 mL/min. Detection was by fluorescence using an excitation wavelength of 235 nm and an emission wavelength of 560 nm. […]
# [2] = Acute toxicity after intravenous injection in mice; format: in vivo; conditions: iv bolus of 250 mg/kg (Dox-HCl eq.), three to five mice per group
# [3] = Supporting toxicity studies; conditions: doses of up to 106.8 mg/kg
# [4] = tested on: estrogen-dependent MCF-7/6 mammary tumor; test: Nude mouse xenograft model, MCF-7/6; format: in vivo; conditions: MCF-7/6 xenograft
# [5] = tested on: adriamycin-resistant colorectal carcinoma CXF280/10; test: Nude mouse xenograft model, CXF280/10; format: in vivo; conditions: CXF280/10 xenograft
# [6] = tested on: LS-174T human colorectal carcinoma; test: Nude mouse xenograft model, LS-174T
# [7] = tested on: MCF 7/6 (breast carcinoma) conditioned media; test: Compound screen: cleavage by MCF 7/6 conditioned media, HPLC; format: biochemical; conditions: 2 hr at 37°C
# Description: as §1
# MCF 7/6 cells were grown to confluence in DMEM/F12 (1:1) medium containing 10 % fetal bovine serum, 0.05% (w/v) L-glutamine, 250 IU/mL penicillin, and 100 µg/mL streptomycin. Cells were then washed twice with phosphate buffered saline and incubated 24 hr at 5% CO2, 37°C, in DMEM/F12 (1:1), 0.02% BSA, ITS-X. The conditioned media was then decanted and, using a stirred cell apparatus with a YM10 (10.000 MW cutoff) ultrafiltration membrane(Millipore), exchanged once with 10 mM HEPES buffer, pH 7.2 and concentrated twenty-fold. This solution was stored in aliquots at-20°C for use in the compound screen. […]
# as §2
# [8] = tested on: trouase; test: Compound screen: cleavage by HeLa cell anion exchange fraction pool (partially purified trouase), HPLC; format: biochemical, human; conditions: 2 hr at 37°C
# Description: as §1
# Thirty billion commercially produced HeLa Cells (human cervical carcinoma, Computer Cell Culture Center, Seneffe, Belgium) were homogenized with a sonicator and with a Dounce homogenizer in 108 mL of aqueous lysis solution. […]
# A portion of the ultracentrifugation supernatant was diluted 2-fold with a 20 mM triethanolamine-HCl pH 7.2 buffer containing 0.01% (w/v) Triton X-100 and 0.02% (w/v) sodium azide (equilibration buffer). […] Its transformation into L-alanyl-L-leucyl-doxorubicin was quantified by reverse phase high performance liquid chromatography utilizing fluorescence detection of the anthracycline moiety. […]
# as §2
# [9] = tested on: Carcinoma cell trouase; test: Inhibition and re-activation of carcinoma cell trouase; format: biochemical; conditions: for inhibition of trouase: carcinoma cell trouase
# [10] = Aggregation: filtration through Centricon filter units of different MWCO; format: physicochemical; conditions: 17.4 µMol/ml in distilled water, 2 hr at 1500g; for 3000 MWCO Filt.: quantitated at λ475 nm
# Source text: Sci., 73(6):766-770 (1984). Confalonieri, C. et al., The use of new laser particle sizer and shape analyser to detect and evaluate gelatinous microparticles suspended in reconstituted anthracycline infusion solutions, J. Pharmaceut. Biomed. Anal., 9(1):1-8 (1991). […] Each filter unit was centrifuged for 2 hr at 1500g force. […]
# [11] = tested on: trouase; test: Trouase cleavage of N-capped peptidyl-daunorubicin (defining characteristic); format: biochemical; conditions: under appropriate assay conditions
# Source text: Trouase is the enzyme which is thought to be critical for specific activation of prodrug at the target tissue.
# [12] = subcutaneous LS174T tumors, five weekly intravenous doses of 57, 64 and 71 mg/kg, versus vehicle-treated controls
compound,measurement,setting,value
COc1cccc2c1C(=O)c1c(O)c3c(c(O)c1C2=O)CC(O)(C(=O)CO)CC3OC1CC(NC(=O)C(CC(C)C)NC(=O)C(C)NC(=O)C(CC(C)C)NC(=O)CCNC(=O)CCC(=O)O)C(O)C(C)O1 (stereo not drawn) [succinyl-β-Ala-Leu-Ala-Leu-Dox],activation of peptidyl-toxin (digestion products by HPLC),"[1]; extracts of carcinoma cells or carcinoma cell conditioned media, two steps, at least two enzymes",converted to leucyl-doxorubicin
same,survival,[2],all animals survived up to 8 days
same,kidney toxicity and myelosuppression,[3],not observed
same,inhibiting the growth of human tumors,[4],efficacious
same,inhibiting the growth of human tumors,[5],efficacious
same,inhibiting the growth of human tumors,[6]; LS-174T xenograft,efficacious
same,toxicity at efficacious doses,[6]; LS-174T xenograft model,without significant toxicity
same,efficacy in inhibiting LS-174T tumor compared to doxorubicin at 3.0 mg/kg and saline,"[6]; doses of 49, 57 and 64 mg/kg",superior efficacy
same,body weight,"[6]; repeat dosing, LS174T model",Some dose-dependent body weight loss
same,safety and tolerability,[6]; repeat-dose levels and frequencies that demonstrated anti-tumor efficacy,safe and well-tolerated
same,Mean Day of Survival (MDS),[6]; [12],"significant, dose-dependent, replicable extension"
same,tumor volume,[6]; [12],decreased size of the tumor
COc1cccc2c1C(=O)c1c(O)c3c(c(O)c1C2=O)C[C@@](O)(C(C)=O)C[C@@H]3O[C@H]1C[C@H](NC(=O)[C@H](CC(C)C)NC(=O)[C@H](C)NC(=O)[C@H](CC(C)C)NC(=O)[C@H](C)NC(=O)CCC(=O)O)[C@H](O)[C@H](C)O1 [P2 L-alanine compound],extent (rate) of cleavage by cell homogenate versus the P2 β-alanine compound,[1]; 2 hr at 37°C,1.3 fold
same,extent of cleavage by conditioned medium versus the P2 β-alanine compound,[7],about the same
same,extent of cleavage with the partially purified trouase preparation versus the P2 β-alanine compound,[8],0.6 fold
aminoethylbenzene-sufonate,inhibition of trouase,[9],not
CC(=O)N[C@@H](CC(C)C)C(=O)N[C@@H](CC(C)C)C(=O)N[C@H](C=O)CCCNC(=N)N [leupeptin],inhibition of trouase,[9],not
O=C(O)CN(CCN(CC(=O)O)CC(=O)O)CC(=O)O [EDTA],inhibition of trouase,[9],inhibited
cupric cations,re-activation of EDTA inactivated trouase,[9],not
COc1cccc2c1C(=O)c1c(O)c3c(c(O)c1C2=O)C[C@@](O)(C(=O)CO)C[C@@H]3O[C@H]1C[C@H](N)[C@H](O)[C@H](C)O1 [doxorubicin],3000 MWCO Filt.,[10]; passing through filter,81%
same,3000 MWCO Filt.,"[10]; passing through filter, listed as Dox",81%
same,10000 MWCO Filt.,[10]; passing through filter,82%
same,50000 MWCO Filt.,[10]; passing through filter,93%
same,3000 MWCO Ret.,[10]; retained,10%
same,10000 MWCO Ret.,[10]; retained,2%
same,50000 MWCO Ret.,[10]; retained,0.5%
same,"Dose limiting toxicity (cardiotoxicity and myelosuppression), dose at which observed",[6]; repeated administration,≥ 3 mg/kg
CC(C)C[C@H](NC(=O)[C@H]1O[C@@H]1C(=O)O)C(=O)NCCCCN=C(N)N [E64],inhibition of trouase,[9],not
"COc1cccc2c1C(=O)c1c(O)c3c(c(O)c1C2=O)CC(O)(C(=O)CO)CC3OC1CC(NC(=O)C(CC(C)C)NC(=O)C(C)NC(=O)C(CC(C)C)NC(=O)CCNC(=O)CCCC(=O)O)C(O)C(C)O1 (stereo not drawn) [glutaryl βAlaLeuAlaLeu-Dox, Gl-β-Ala-Leu-Ala-Leu-Dox]",survival,[2],all animals survived up to 8 days
CO[C@@H]1[C@H](OC(=O)/C=C/C=C/C=C/C=C/C(=O)O)CC[C@]2(CO2)[C@H]1[C@@]1(C)O[C@@H]1CC=C(C)C [fumagillin],inhibition of trouase,[9],not
manganese,concentration that re-activates EDTA inactivated trouase,[9],50 to 1000 µM
CC[C@H](C)[C@H](NC(=O)CCNC(=O)CCC(=O)O)C(=O)N[C@@H](C)C(=O)N[C@@H](CC(C)C)C(=O)N[C@H]1C[C@H](O[C@H]2C[C@](O)(C(C)=O)Cc3c(O)c4c(c(O)c32)C(=O)c2c(OC)cccc2C4=O)O[C@@H](C)[C@H]1O [succinyl-βAlalleAlaLeu-Daunorubicin],trouase activity relative to succinyl-βAlaLeuAlaLeu-Daunorubicin,[11],at least twenty-fold less active
"COc1cccc2c1C(=O)c1c(O)c3c(c(O)c1C2=O)C[C@@](O)(C(C)=O)C[C@@H]3O[C@H]1C[C@H](NC(=O)[C@H](CC(C)C)NC(=O)[C@H](C)NC(=O)[C@H](CC(C)C)NC(=O)CCNC(=O)CCC(=O)O)[C@H](O)[C@H](C)O1 [succinyl-βAlaLeuAlaLeu-Daunorubicin, Suc-β-Ala-Leu-Ala-Leu-Dnr]",cleavage by trouase,[11],readily cleaves
cobalt,concentration that re-activates EDTA inactivated trouase,[9],50 to 100 µM
CCCNC(=O)[C@H]1O[C@@H]1C(=O)N[C@H](C(=O)N1CCC[C@H]1C(=O)O)[C@@H](C)CC [CA074],inhibition of trouase,[9],not
"c1cnc2c(c1)ccc1cccnc12 [1,10-phenanthroline]",inhibition of trouase,[9],inhibited
zinc,re-activation of EDTA inactivated trouase,[9],not
CC(C)CC(=O)N[C@H](C(=O)N[C@H](C(=O)N[C@@H](CC(C)C)[C@@H](O)CC(=O)N[C@@H](C)C(=O)N[C@@H](CC(C)C)[C@@H](O)CC(=O)O)C(C)C)C(C)C [pepstatin] (Isovaleryl-VV[Sta]A[Sta]-OH),inhibition of trouase,[9],not
